Measured values reported in PMC10141604, “Small-Molecule Inhibition of Androgen Receptor Dimerization as a Strategy against Prostate Cancer” (ACS Central Science, 2023).

Tests used:
[1] = biological target: T1, AR (Homo sapiens, UniProt P10275, T878A); experiment: AR transcriptional activity assay (LNCaP-ARR2PB-eGFP cells); type: cell-based
T1 construct: The cells of LNCaP-ARR2PB-eGFP were; endogenous in cells; host or cells: LNCaP-ARR2PB-eGFP
T1 sequence (P10275 1-920 T878A): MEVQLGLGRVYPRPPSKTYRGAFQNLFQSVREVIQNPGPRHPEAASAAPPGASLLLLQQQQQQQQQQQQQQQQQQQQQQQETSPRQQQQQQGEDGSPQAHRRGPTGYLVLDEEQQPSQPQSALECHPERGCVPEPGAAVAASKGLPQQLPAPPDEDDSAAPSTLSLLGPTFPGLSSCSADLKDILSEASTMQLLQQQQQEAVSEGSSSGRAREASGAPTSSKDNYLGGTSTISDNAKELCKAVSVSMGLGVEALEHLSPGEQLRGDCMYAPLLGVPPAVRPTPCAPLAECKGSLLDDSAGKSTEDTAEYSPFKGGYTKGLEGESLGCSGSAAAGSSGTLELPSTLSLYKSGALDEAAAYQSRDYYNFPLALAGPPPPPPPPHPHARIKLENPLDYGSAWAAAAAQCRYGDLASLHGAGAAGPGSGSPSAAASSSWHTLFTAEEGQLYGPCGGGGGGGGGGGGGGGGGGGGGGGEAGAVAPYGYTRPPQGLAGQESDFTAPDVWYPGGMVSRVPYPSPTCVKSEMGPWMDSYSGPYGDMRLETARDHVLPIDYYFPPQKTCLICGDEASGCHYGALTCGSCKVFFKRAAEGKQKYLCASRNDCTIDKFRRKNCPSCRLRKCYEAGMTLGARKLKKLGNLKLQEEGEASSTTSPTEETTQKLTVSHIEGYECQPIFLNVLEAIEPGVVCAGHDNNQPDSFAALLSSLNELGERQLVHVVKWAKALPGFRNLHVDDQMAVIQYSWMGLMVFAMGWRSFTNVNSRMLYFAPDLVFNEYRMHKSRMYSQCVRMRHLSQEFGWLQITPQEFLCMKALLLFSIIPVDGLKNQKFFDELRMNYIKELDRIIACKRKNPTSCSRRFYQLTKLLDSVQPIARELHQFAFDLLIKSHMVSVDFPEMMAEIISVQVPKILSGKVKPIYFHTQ
Procedure: University, Hangzhou, China), respectively. […]
AR Transcriptional Activity Assay
The AR transcriptional activities were determined using the constructed LNCaP-ARR2PB-eGFP cell as previously reported.11, 12 The cells of LNCaP-ARR2PB-eGFP were […]
by seeding into a 96 -well plate (3.5× 10^4 cells/well) for 1 day incubation at 37 °C. Then, the cells were treated with 5 nM DHT and various concentrations of compounds (10 μM […]
the fluorescence intensities were determined using a Synergy H1 microplate reader

[2] = system: 22RV1; experiment: MTT cell viability assay, 22RV1; type: cell-based; settings: 72 h
Procedure: 3-(4,5-dimethythiazol-2-yl)-2,5-diphenyl-2-H-tetrazolium bromide (MTT) colorimetric assay was employed to investigate cell viability. Cells were seeded into 96-well plates with 2-5× 10^3 cells per well (5× 10^3 cells/well for LNCaP, 22RV1, NIH-3T3, GES-1, Chang, […]
NCI-H1299, U2OS, U87) for 1 day incubation at 37 °C. Then, the cells were treated with various concentrations of compounds (22.86 nM - 50 μM) and incubated for 72 h. Then, 10 μl MTT (5 mg/ml) was added into each well and incubated for 4 h. Afterwards, 100 μl of triplex 10% SDS-0.1% HCl-phosophate-buffered saline (PBS) solutions was added into each well and incubated for overnight. The absorbance at 570 nm was measured (Eon, Bioteck, Winooski, VT). […]

[3] = biological target: FL-AR^F876L/T877A (Homo sapiens, UniProt P10275, F877L/T878A); experiment: Dual-luciferase reporter assay for FL-AR F876L/T877A in PC3 cells
Sequence of FL-AR^F876L/T877A (P10275 whole entry F877L/T878A): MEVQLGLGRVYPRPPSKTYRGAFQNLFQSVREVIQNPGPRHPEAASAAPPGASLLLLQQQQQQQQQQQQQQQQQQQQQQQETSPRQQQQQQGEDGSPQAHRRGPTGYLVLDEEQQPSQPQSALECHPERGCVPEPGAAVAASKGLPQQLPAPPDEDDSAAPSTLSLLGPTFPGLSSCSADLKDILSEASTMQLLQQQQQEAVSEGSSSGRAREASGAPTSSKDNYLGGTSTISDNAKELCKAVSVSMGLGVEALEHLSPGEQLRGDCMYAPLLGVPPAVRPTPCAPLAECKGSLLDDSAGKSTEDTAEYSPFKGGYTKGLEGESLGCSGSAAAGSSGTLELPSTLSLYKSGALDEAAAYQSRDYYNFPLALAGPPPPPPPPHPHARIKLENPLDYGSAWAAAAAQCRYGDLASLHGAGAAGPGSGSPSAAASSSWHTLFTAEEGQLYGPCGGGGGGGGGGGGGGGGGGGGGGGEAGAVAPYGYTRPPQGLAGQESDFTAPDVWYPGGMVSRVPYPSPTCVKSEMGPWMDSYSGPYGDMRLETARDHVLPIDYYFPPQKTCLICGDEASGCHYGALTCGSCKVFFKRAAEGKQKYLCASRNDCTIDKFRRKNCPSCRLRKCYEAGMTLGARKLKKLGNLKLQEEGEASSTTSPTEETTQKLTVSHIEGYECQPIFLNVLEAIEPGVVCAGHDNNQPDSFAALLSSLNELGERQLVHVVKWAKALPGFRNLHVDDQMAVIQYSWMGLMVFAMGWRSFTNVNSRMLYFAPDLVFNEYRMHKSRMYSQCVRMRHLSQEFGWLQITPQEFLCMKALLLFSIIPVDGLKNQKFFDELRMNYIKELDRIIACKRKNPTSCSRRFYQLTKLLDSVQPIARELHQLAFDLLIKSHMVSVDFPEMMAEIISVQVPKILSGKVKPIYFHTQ
Procedure: Luciferase Reporter Assays for FL -ARF876L and FL-ARF876L/T877A
constructed on the basis of the human full length wild type AR plasmid pCMV -hAR
transfected with 70 ng/well of FL -AR plasmid together with 24 ng of ARR2PB -Luc, and 5 ng of Renilla. After 1 day incubation at 37 °C , the antagonistic models were employed
After another 24 h incubation, the luciferase activities were determined by the Dual -Glo Luciferase system (#E1910, Promega) according to the

[4] = system: DHT-induced AR nuclear translocation in LNCaP cells; experiment: Nuclear and cytoplasmic fractionation, AR nuclear translocation; type: cell-based; settings: 10 μM, 10 nM DHT, 16 h
Procedure: h incubation at room temperature, each membrane was further incubated with specific
Lamin B1, #AF1408, Beyotime Biotechnology) and then the corresponding secondary antibody (HRP-conjugated Goat Anti-Rabbit IgG, # D110058, Sangon Biotech). The Image J program was performed for quantitative analysis of the immunoreactive bands.
Extraction of Nuclear and Cytoplasmic Fractions
presence of 10 nM DHT and incubated for 16 h. The NE-PER Nuclear and Cytoplasmic
extraction of nuclear and cytoplasmic proteins according to manufacturer’s protocol.

## CC(=O)Cc1nsc(NC(=O)c2cc(-c3cccc(C(F)(F)F)c3)oc2C)n1 [Compound M17-B15]
[1]; LNCaP-ARR2PB-eGFP cells, 5 nM DHT, 3 days
  IC50: 30 ± 10 nM
[1]; ratio of IC50 values
  improvement in AR transcriptional inhibition compared with the original hit M17: > 31 fold
[2]
  inhibition on the cell viability of 22RV1: does not show obvious inhibition
[3]
  IC50: 150 nM
[4]
  DHT-induced AR nuclear translocation: inhibit
